#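 Grown in 96-well plates, cells were treated for 48 hours with each compound at five concentrations. Insufficient inhibition: endpoint recorded as highest concentration tested. Here, GI50 denotes the concentration required for 50% inhibition of growth.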 The source made the active and inactive calls. Cut-off read from the data, not from the text of the source: active = GI50 up to about 1.1 µM and inactive = higher.
# Experiments:
# Experiment in all cases: NCI anticancer screen, dose series, 48 h
# [1] = test system: UACC-62
# [2] = test system: NCI/ADR-RES
# [3] = test system: LOX IMVI
# [4] = test system: HCT-15
# [5] = test system: SW-620
# [6] = test system: SK-OV-3
# [7] = test system: Hs-578T
# [8] = test system: CCRF-CEM
# [9] = test system: RPMI-8226
# [10] = test system: MDA-MB-435
# [11] = test system: SNB-75
# [12] = test system: SK-MEL-2
# [13] = test system: DU-145
# [14] = test system: A549
# [15] = test system: OVCAR-5
# [16] = test system: BT-549
# [17] = test system: SF-295
# [18] = test system: ACHN
# [19] = test system: HCC 2998
# [20] = test system: HOP-92
Structure (SMILES),GI50 [1],GI50 [2],GI50 [3],GI50 [4] [µM],GI50 [5],GI50 [6],GI50 [7],GI50 [8],GI50 [9],GI50 [10],GI50 [11],GI50 [12],GI50 [13],GI50 [14],GI50 [15],GI50 [16],GI50 [17],GI50 [18],GI50 [19],GI50 [20]
O=C(NNC(=O)c1ccccc1Cl)c1ccccc1O,35.7 µM (inactive),20.3 µM (inactive),38.1 µM (inactive),21.7,71.6 µM (inactive),18.2 µM (inactive),41.9 µM (inactive),44.1 µM (inactive),> 100 µM (inactive),67 µM (inactive),20.5 µM (inactive),53.7 µM (inactive),> 100 µM (inactive),56.2 µM (inactive),> 100 µM (inactive),> 100 µM (inactive),32.7 µM (inactive),,,
COc1cc2oc(-c3ccc4c(c3)OCO4)c(OC)c(=O)c2c(OC)c1OC,> 100 µM (inactive),> 100 µM (inactive),> 100 µM (inactive),> 100,> 100 µM (inactive),44.7 µM (inactive),52.2 µM (inactive),> 100 µM (inactive),,> 100 µM (inactive),27.2 µM (inactive),> 100 µM (inactive),> 100 µM (inactive),> 100 µM (inactive),> 100 µM (inactive),38.7 µM (inactive),> 100 µM (inactive),59.4 µM (inactive),> 100 µM (inactive),1.35 µM (inactive)
S=C(NCc1ccccc1)c1nc[nH]c1C(=S)NCc1ccccc1,3.2 µM (inactive),3.41 µM (inactive),4.72 µM (inactive),3.83,4.98 µM (inactive),12.7 µM (inactive),,2.96 µM (inactive),5.19 µM (inactive),6.62 µM (inactive),6.12 µM (inactive),9.08 µM (inactive),9.27 µM (inactive),3.89 µM (inactive),6.98 µM (inactive),13.3 µM (inactive),4.57 µM (inactive),2.69 µM (inactive),10 µM (inactive),1.88 µM (inactive)
Cc1nnc2sc(Cl)nn12,4.51 µM (inactive),51.5 µM (inactive),10 µM (inactive),19.3,3.92 µM (inactive),17.3 µM (inactive),39.5 µM (inactive),3.85 µM (inactive),6.1 µM (inactive),7.64 µM (inactive),45.3 µM (inactive),24.1 µM (inactive),34.4 µM (inactive),26.1 µM (inactive),23 µM (inactive),17.7 µM (inactive),17.7 µM (inactive),23.3 µM (inactive),15.5 µM (inactive),
Cc1cc(S(=O)(=O)Nc2nc(N)n(-c3cnc4ccccc4n3)n2)c(S)cc1Cl,49.7 µM (inactive),> 100 µM (inactive),> 100 µM (inactive),> 100,> 100 µM (inactive),85.7 µM (inactive),78.5 µM (inactive),37.1 µM (inactive),,> 100 µM (inactive),22.7 µM (inactive),> 100 µM (inactive),> 100 µM (inactive),> 100 µM (inactive),> 100 µM (inactive),16.6 µM (inactive),,> 100 µM (inactive),> 100 µM (inactive),16.6 µM (inactive)
N/C(=N\OC(=O)NC(Cl)=C(Cl)Cl)c1cc(C(F)(F)F)cc(C(F)(F)F)c1,,19.5 µM (inactive),16.3 µM (inactive),17.3,18.9 µM (inactive),28.4 µM (inactive),,4.65 µM (inactive),12.5 µM (inactive),19.4 µM (inactive),,,13.2 µM (inactive),15.3 µM (inactive),21.1 µM (inactive),21.8 µM (inactive),17.5 µM (inactive),14 µM (inactive),12.5 µM (inactive),14.8 µM (inactive)
CC(Cc1cccc2c1Nc1ccccc1S2)N(C)CCO (centres undefined),> 100 µM (inactive),> 100 µM (inactive),> 100 µM (inactive),> 100,> 100 µM (inactive),> 100 µM (inactive),> 100 µM (inactive),> 100 µM (inactive),,> 100 µM (inactive),,,> 100 µM (inactive),> 100 µM (inactive),> 100 µM (inactive),> 100 µM (inactive),> 100 µM (inactive),> 100 µM (inactive),> 100 µM (inactive),> 100 µM (inactive)
N#Cc1ncn(CCO)c1N,> 100 µM (inactive),> 100 µM (inactive),> 100 µM (inactive),> 100,> 100 µM (inactive),> 100 µM (inactive),> 100 µM (inactive),> 100 µM (inactive),> 100 µM (inactive),> 100 µM (inactive),> 100 µM (inactive),> 100 µM (inactive),> 100 µM (inactive),> 100 µM (inactive),> 100 µM (inactive),> 100 µM (inactive),> 100 µM (inactive),> 100 µM (inactive),> 100 µM (inactive),
CC(C)(C)OC(=O)NCCCCC(NC(=O)c1ccccc1)C(N)=O (centres undefined),71.9 µM (inactive),> 100 µM (inactive),> 100 µM (inactive),> 100,> 100 µM (inactive),99.1 µM (inactive),> 100 µM (inactive),> 100 µM (inactive),> 100 µM (inactive),> 100 µM (inactive),> 100 µM (inactive),> 100 µM (inactive),> 100 µM (inactive),> 100 µM (inactive),> 100 µM (inactive),> 100 µM (inactive),> 100 µM (inactive),> 100 µM (inactive),,
CC1(C)[C@H]2CC[C@]1(C)[C@H](OC(=O)NNC(=O)O[C@@H]1C[C@@H]3CC[C@@]1(C)C3(C)C)C2,17.4 µM (inactive),,26.7 µM (inactive),12.5,19.4 µM (inactive),14.3 µM (inactive),14.2 µM (inactive),20.3 µM (inactive),10.5 µM (inactive),21.2 µM (inactive),13.6 µM (inactive),16.8 µM (inactive),16.3 µM (inactive),10.4 µM (inactive),17.5 µM (inactive),19.7 µM (inactive),13.8 µM (inactive),18.7 µM (inactive),14.1 µM (inactive),15.1 µM (inactive)
O=c1[nH]nc(Cc2ccc(Cl)cc2)n1Nc1ccccc1,> 100 µM (inactive),> 100 µM (inactive),> 100 µM (inactive),> 100,> 100 µM (inactive),,47.9 µM (inactive),> 100 µM (inactive),,> 100 µM (inactive),48.8 µM (inactive),> 100 µM (inactive),4.94 µM (inactive),> 100 µM (inactive),> 100 µM (inactive),> 100 µM (inactive),> 100 µM (inactive),> 100 µM (inactive),> 100 µM (inactive),> 100 µM (inactive)
Cc1ccc(C(=O)N/N=C(\N=N\c2cccc(Cl)c2)c2ccc(N(CCC#N)CCC#N)cc2C)cc1,> 100 µM (inactive),> 100 µM (inactive),> 100 µM (inactive),> 100,> 100 µM (inactive),> 100 µM (inactive),,97.1 µM (inactive),91.8 µM (inactive),> 100 µM (inactive),75.9 µM (inactive),> 100 µM (inactive),> 100 µM (inactive),> 100 µM (inactive),> 100 µM (inactive),> 100 µM (inactive),> 100 µM (inactive),> 100 µM (inactive),> 100 µM (inactive),> 100 µM (inactive)
N#CC1(c2ccccc2)CCN(C2(c3ccccc3)CCCCC2)CC1,> 100 µM (inactive),> 100 µM (inactive),> 100 µM (inactive),> 100,> 100 µM (inactive),> 100 µM (inactive),44 µM (inactive),> 100 µM (inactive),> 100 µM (inactive),> 100 µM (inactive),> 100 µM (inactive),> 100 µM (inactive),> 100 µM (inactive),> 100 µM (inactive),> 100 µM (inactive),> 100 µM (inactive),> 100 µM (inactive),> 100 µM (inactive),> 100 µM (inactive),
CCOC(=O)c1nnsc1N/N=C\c1ccc([N+](=O)[O-])cc1,> 100 µM (inactive),> 100 µM (inactive),,> 100,> 100 µM (inactive),> 100 µM (inactive),> 100 µM (inactive),> 100 µM (inactive),> 100 µM (inactive),> 100 µM (inactive),44.5 µM (inactive),> 100 µM (inactive),> 100 µM (inactive),> 100 µM (inactive),> 100 µM (inactive),> 100 µM (inactive),> 100 µM (inactive),> 100 µM (inactive),> 100 µM (inactive),
COc1ccc([S+]([O-])Cc2cc(OC)c(OC)c(OC)c2)cc1 (centres undefined),42.4 µM (inactive),40.7 µM (inactive),91.6 µM (inactive),30.4,30.3 µM (inactive),> 100 µM (inactive),> 100 µM (inactive),41.3 µM (inactive),42.2 µM (inactive),5.96 µM (inactive),45.4 µM (inactive),38.1 µM (inactive),> 100 µM (inactive),49.1 µM (inactive),42.9 µM (inactive),46.7 µM (inactive),47.3 µM (inactive),> 100 µM (inactive),54.3 µM (inactive),

# — ChEMBL document CHEMBL1201862, “PubChem BioAssay data set” (2004)
